Measured values: paper PMC7769561, “Antileishmanial activity of synthetic analogs of the naturally occurring quinolone alkaloid N-methyl-8-methoxyflindersin” (PLoS ONE, 2020)
pEC50: −log10 of the molar value. In brackets after ≈: the same amount, converted by molar mass. Several values for one entry are separate records, joined by “and”; a condition that tells them apart may be missing. Identical values can stand only once.

How the values were obtained:
[1] = Cytotoxicity in hMDMs (resazurin, 72 h); conditions: human
Method: We isolated hMDMs from buffy coats donated by the Institute of Local Science (Biotechnology and Health Innovation, Bogotá, Colombia) and spun them in Lymphoprep density gradient medium (Stem-Cell, Vancouver, Canada).
Next, we added 100 μL of this culture to each quinoline alkaloid–like compound at a concentration of 200, 20, 2, 0.2, and 0.02 μg/mL. […] Cells treated with amphotericin B (Sigma-Aldrich) were used as cell apoptosis (positive) controls. Results were expressed as the medial cytotoxic concentration (CC50) using Prism GraphPad software for nonlinear regression analysis (https://www.graphpad.com/scientific-software/prism/).
(§1) All assays required at least three independently duplicated experiments. We determined cytotoxicity against hMDMs and effectivity in L. (V) panamensis promastigotes according to each treatment’s mortality (compound and concentration) using Eq 1, where the control mean fluorescence intensity (MFI) was 100% viability: Validityinhibition(%)=100−[MIFexposedcells/MIFunexposedcells×100] (1)
(§2) We used GraphPad Prism nonlinear regression analysis to estimate the percentage mortality with regard to CC50 and EC50. […] The antileishmanial activity with regard to promastigotes was classified as active according to Eq 2: Active=EC50<[LC50/2], (2) where LC50 is the median lethal concentration. We also used GraphPad Prism nonlinear regression analysis to determine the intracellular antileishmanial activity (concentration vs. response), depending on the infection (number of infected cells) and parasite burden (number of parasites/cell) obtained in experimental conditions. Parasite inhibition was estimated using Eq 3, where the plate MFI is 100% parasites: Infectioninhibition(%)=100−[(MIFexposedparasites/MIFunexposedparasites×100)] (3)

[2] = test system: L. (V.) panamensis promastigotes; experiment: Antileishmanial activity in L. (V.) panamensis promastigotes (resazurin, 72 h); assay type: cell-based, Leishmania (Viannia) panamensis; conditions: L. (V.) panamensis promastigotes, ± SD; for EC50: read-out: EC50 Intracellular promastigotes (converted)
Method: They were treated with quinoline alkaloid–like compounds at a concentration of 100, 10, 1, 0.1, and 0.01 μg/mL for 72 h at 26°C. Next, we determined antileishmanial activity using the resazurin method (Sigma-Aldrich). Promastigotes treated with amphotericin B (Sigma-Aldrich) and pentamidine (Sanofi-Aventis, Gentilly, France) were used as parasite death (positive) controls. Results were expressed as the medial effective concentration (EC50) using Prism GraphPad software for nonlinear regression analysis (https://www.graphpad.com/scientific-software/prism/).
as §1, §2

[3] = test system: L. (V.) panamensis intracellular amastigotes; experiment: Antileishmanial activity in L. (V.) panamensis intracellular amastigotes in hMDMs; assay type: cell-based, Leishmania (Viannia) panamensis; conditions: for SI (selectivity index = CC50/EC50): CC50 hMDMs / EC50 intracellular amastigotes
Method: Next, 100 μL of the suspension was cultured in 96-well plates and infected with L. (V.) panamensis promastigotes (HMOM/COL/87/UA-140) at a 10:1 parasite:cell ratio. We incubated the plates in a 5% CO2 atmosphere for 4 h at 35°C. After incubation, we removed noninternalized parasites by washing the cells with 0.9% NaCl saline solution (Baxter International, Deerfield, IL, USA). The cells were incubated again for 24 h and then treated with each quinoline alkaloid–like compound at a concentration of 100, 10, 1, 0.1, and 0.01 μg/mL in a 5% CO2 atmosphere for 72 h at 36°C. Next, we quantified the percentage of infected cells using fluorescence microscopy, as previously described by Pérez-Cordero in 2011 [23], and quantified the parasite load (amount of intracellular promastigotes and amastigotes per cell) using Giemsa staining and flow cytometry (Cytomics FC 500 MPL; Beckman Coulter, Brea, CA, USA). […] Results were expressed as EC50 using Prism GraphPad software’s probit nonlinear regression analysis (https://www.graphpad.com/scientific-software/prism/).
as §2
The percentage inhibition was used to calculate EC50 by nonlinear regression analysis (fluorescence microscopy), while the parasite burden was evaluated as the percentage of intracellular promastigotes and amastigotes in 100 infected cells (Giemsa staining). […] The selectivity index (SI) was estimated using the following formula: SI=CC50/EC50

[4] = test system: L. (V.) panamensis intracellular amastigotes; experiment: as above; assay type: cell-based, Leishmania (Viannia) panamensis; conditions: 72 h, ± SD
hMDMs = experiment: Apoptosis in noninfected and L. (V.) panamensis-infected hMDMs (annexin V/7AAD flow cytometry); assay type: cell-based, human; conditions: compound at EC50, 72 h
Method: Next, the cells were fixed with 4% paraformaldehyde for evaluating dead cells using a live/dead cell viability kit (Beckton, Dickinson and Company, Franklin Lakes, NJ, USA). hMDMs cultured without any treatment were used as viability controls, while those treated with 0.01% H2O2, 10 μg/mL of lipopolysaccharide (LPS; Sigma-Aldrich), and 1% dimethyl sulfoxide (DMSO) were used as cell mortality (positive) controls. Apoptotic and necrotic cells were quantified using flow cytometry (FACS Canto II; Becton, Dickinson and Company).

[5] = test system: L. (V.) panamensis-infected hMDMs; experiment: ROS generation in L. (V.) panamensis-infected hMDMs (H2DCFDA flow cytometry); assay type: cell-based, human; conditions: compound at EC50, 4, 24, 48 and 72 h
Method: (§3) Next, we detached the cells with ethylenediaminetetraacetic acid (EDTA)/trypsin (Lonza, MD, USA) and 2',7'-dichlorodihydrofluorescein diacetate (H2DCFDA) tagged on a 5 μM fluorescent tube (Sigma-Aldrich) in order to identify intracellular ROS and/or 4-amino-5-methylamino-2′,7′-difluorofluorescein (DAF-FM; Sigma-Aldrich) for NO production in a 5% CO2 atmosphere for 45 min at 37°C. ROS and NO were quantified using flow cytometry (FACS Canto II) at a wavelength of 480 nm. Untreated cells were used as negative controls, while cells treated with 0.0001% H2O2 and 1 μM phorbol myristate acetate were used as ROS production (positive) controls. LPS (10 ng/mL) and phytohemagglutinin (PHA-M) (10 μL/mL) (Invitrogen) were used as positive controls for NO production.

[6] = test system: L. (V.) panamensis-infected hMDMs; experiment: NO production in L. (V.) panamensis-infected hMDMs (DAF-FM flow cytometry); assay type: cell-based, human
Method: as §3

[7] = test system: L. (V.) panamensis-infected hMDMs; experiment: Transmission electron microscopy of L. (V.) panamensis-infected hMDMs; assay type: cell-based, human; conditions: compound at EC50, 72 h, TEM; for Cell membrane (ultrastructural modification grade): key: -: no alteration/absence; +: low alteration/low presence; ++: alteration/moderate presence; +++: serious disturbance/abundant presence; for LB (lipid bodies, grade): key: -: no alteration/absence; +: low alteration/low presence; ++: alteration/moderate presence; +++: serious disturbance/abundant presence; for Mitochondria (ultrastructural modification grade): key: -: no alteration/absence; +: low alteration/low presence; ++: alteration/moderate presence; +++: serious disturbance/abundant presence; for Nucleus (ultrastructural modification grade): key: -: no alteration/absence; +: low alteration/low presence; ++: alteration/moderate presence; +++: serious disturbance/abundant presence
Excerpt: (§4) This procedure involved including fresh resin and 100–200-nm-wide ultrafine cuts observed by TEM (100X–10.000X) (HITACHI-HU-12; Hitachi, Tokyo, Japan).

[8] = test system: L. (V.) panamensis intracellular amastigotes; experiment: Transmission electron microscopy of L. (V.) panamensis intracellular amastigotes in hMDMs; assay type: cell-based, Leishmania (Viannia) panamensis; parameters: Nucleus (ultrastructural alteration grade) / Vacuoles (ultrastructural alteration grade): key: -: no alteration/absence; +: low alteration/low presence; ++: alteration/moderate presence; +++: serious disturbance/abundant presence; conditions: compound at EC50, 72 h, TEM
Excerpt: as §4

[9] = amastigotes in hMDMs, 72 h, ± SD

## Cc1cc(=O)[nH]c2ccccc12 [Compound 4, 4-methyl-2-(1H)-quinolinone]
[1]
  CC50 at 72 h: 95.2 µg/mL and 391 µM
[2]
  EC50: 62.3 µg/mL and 256 µM
[3]
  SI (selectivity index = CC50/EC50): 1.66
[4]
  EC50: 57.1 µg/mL and 256 µM

## C[C@@H]1[C@H](O)[C@@H](C)/C=C/C=C/C=C/C=C/C=C/C=C/C=C/[C@H](O[C@@H]2O[C@H](C)[C@@H](O)[C@H](N)[C@@H]2O)C[C@@H]2O[C@](O)(C[C@@H](O)C[C@@H](O)[C@H](O)CC[C@@H](O)C[C@@H](O)CC(=O)O[C@H]1C)C[C@H](O)[C@H]2C(=O)O [AMB, amphotericin B, reference compound]
[1]
  CC50 at 72 h: 4.5 µg/mL and 4.9 µM
[2]
  EC50: 0.3 µg/mL and 300 nM
[3]
  SI (selectivity index = CC50/EC50): 11.25
[4]
  EC50: 0.4 µg/mL and 400 nM

## COc1ccc2c3c(c(=O)n(C)c2c1)C=CC(C)(C)O3 [Compound 1, N-methyl-8-methoxyflindersin]
[2]
  EC50 Intracellular promastigotes: 9.9 ± 3 mg/L (≈ 36.5 µM)
  EC50: 36.5 µM
[3]
  SI (selectivity index = CC50/EC50): 5.87
[3]; [9]
  pEC50: 4.53
  EC50 Intracellular amastigotes: 7.4 ± 1.95 mg/L (≈ 27.3 µM)
[3]; intracellular amastigotes, class by EC50
  Antileishmanial activity class: high (high if EC50 < 25 μg/mL)
hMDMs; L. (V.) panamensis-infected hMDMs
  Percentage of apoptotic cells (annexin V+ 7AAD–, Q3): 41.3%
hMDMs; noninfected (basal) hMDMs
  Percentage of apoptotic cells (annexin V+ 7AAD–, Q3): 20.2%
[5]
  ROS generation compared to infected control cells: no significant variations
[6]; compound at EC50, 24, 48 and 72 h
  NO production compared to untreated infected hMDMs: increase in NO production
[6]; compound at EC50, 72 h posttreatment
  NO production: increase in NO production
[7]
  Cell membrane (ultrastructural modification grade): -
  LB (lipid bodies, grade): -
  Mitochondria (ultrastructural modification grade): +
  Nucleus (ultrastructural modification grade): -
  PV (description): Individuals, attached to the parasite
  PV (parasitophorous vacuoles, grade): +
  Parasites (grade): +
  Vacuoles (description): Double membrane (autophagic-digestives)
  Vacuoles (ultrastructural modification grade): ++
[8]
  Cell membrane (description): Integrity damage in membrane
  Cell membrane (ultrastructural alteration grade): +++
  Flagellum (flagellar/axonema pocket) (grade): -
  LB (lipid bodies, grade): -
  Mitochondria/Kinetoplasts (ultrastructural alteration grade): -
  Nucleus (description): Nuclear membrane damage
  Nucleus (ultrastructural alteration grade): +++
  PV (description): Individuals attached to the parasite
  PV (parasitophorous vacuoles, grade): +
  Vacuoles (description): Electrodense acidocalcisome type
  Vacuoles (ultrastructural alteration grade): ++
